{"source": "patent US20160024051A1", "about": "“SALTS AND SOLID FORMS OF ISOQUINOLINONES AND COMPOSITION COMPRISING AND METHODS OF USING THE SAME” (INFINITY PHARMACEUTICALS, INC., priority 2013, published 2016)", "key": {"[1]": {"experiment": "Stability of Hydrate Form 2: maturation in water or acetic acid: water 1:3 at constant temperature", "assay_type": "physicochemical", "settings": "40 hours maturation", "procedure": "Both solids obtained from maturation at 25° C."}, "[2]": {"experiment": "Storage at 25° C./93% RH for 1 week, re-analysis by XRPD/HPLC", "assay_type": "physicochemical"}, "[3]": {"experiment": "Storage at 40° C./75% RH (elevated humidity) for 1 week, re-analysis by XRPD/HPLC"}, "[4]": {"experiment": "Drying at 50° C./vacuum, re-analysis by XRPD", "assay_type": "physicochemical"}, "[5]": {"experiment": "Thermodynamic aqueous solubility", "assay_type": "physicochemical"}, "[6]": {"experiment": "Gravimetric vapour sorption (GVS)", "assay_type": "physicochemical", "procedure": "Sorption isotherms were obtained using a Hiden IGASorp moisture sorption analyser, controlled by CFRSorp software. The sample temperature was maintained at 25° C. by a Huber re-circulating water bath. The humidity was controlled by mixing streams of dry and wet nitrogen, with a total flow rate of 250 ml/min. The relative humidity (RH) was measured by a calibrated Vaisala RH probe (dynamic range of 0-95% RH), located near the sample. The weight change, (mass relaxation) of the sample as a function of % RH was constantly monitored by the microbalance (accuracy ±0.001 mg). Typically 10-20 mg of sample was placed in a tared mesh stainless steel basket under ambient conditions. The sample was loaded and unloaded at 40% RH and 25° C. (typical room conditions). A moisture sorption isotherm was performed as outlined below (2 scans giving 1 complete cycle). The standard isotherm was performed at 25° C. at 10% RH intervals over a 0-90% RH range.\nThe software uses a least squares minimisation procedure together with a model of the mass relaxation, to predict an asymptotic value. The measured mass relaxation value must be within 5% of that predicted by the software, before the next % RH value is selected. The minimum equilibration time was set to 1 hour and the maximum to 4 hours. The sample was recovered after completion of the isotherm and re-analysed by XRPD."}}, "data": [{"smiles": "COc1cc(-c2cccc3cc([C@H](C)Nc4nc(N)ncc4C#N)n(-c4ccccc4)c(=O)c23)ccn1.O", "note": "[Form 2 of free base of Compound 1]", "values": [{"measurement": "XRPD", "setting": "[1]; Acetic acid:water 1:3, 25° C.", "value": "Hydrate Form 2"}, {"measurement": "XRPD", "setting": "[1]; Water, 25° C.", "value": "Hydrate Form 2"}, {"measurement": "XRPD", "setting": "[1]; Water, 90° C.", "value": "Hydrate Form 2"}]}, {"smiles": "CC(=O)O.COc1cc(-c2cccc3cc([C@H](C)Nc4nc(N)ncc4C#N)n(-c4ccccc4)c(=O)c23)ccn1.COc1cc(-c2cccc3cc([C@H](C)Nc4nc(N)ncc4C#N)n(-c4ccccc4)c(=O)c23)ccn1", "note": "[Batch 2 of Form 6]", "values": [{"measurement": "Stability at 25° C./93% RH", "setting": "[2]; after 1 week, XRPD", "value": "Very slight changes"}, {"measurement": "Stability at 40° C./75% RH", "setting": "[3]; after 1 week, XRPD", "value": "Very slight changes"}]}, {"smiles": "COc1cc(-c2cccc3cc([C@H](C)Nc4nc(N)ncc4C#N)n(-c4ccccc4)c(=O)c23)ccn1", "note": "[Form 5 of the free base of Compound 1]", "values": [{"measurement": "XRPD after drying at 50° C./vacuum", "setting": "[4]; screening sample from 2-MeTHF", "value": "No changes"}, {"measurement": "XRPD after drying at 50° C./vacuum", "setting": "[4]; screening sample from Acetone", "value": "No changes"}, {"measurement": "XRPD after drying at 50° C./vacuum", "setting": "[4]; screening sample from Acetonitrile", "value": "No changes"}, {"measurement": "XRPD after drying at 50° C./vacuum", "setting": "[4]; screening sample from DCM", "value": "No changes"}, {"measurement": "XRPD after drying at 50° C./vacuum", "setting": "[4]; screening sample from DCM:MeOH 1:1", "value": "No changes"}, {"measurement": "XRPD after drying at 50° C./vacuum", "setting": "[4]; screening sample from DME", "value": "No changes"}, {"measurement": "XRPD after drying at 50° C./vacuum", "setting": "[4]; screening sample from EtOAc", "value": "No changes"}, {"measurement": "XRPD after drying at 50° C./vacuum", "setting": "[4]; screening sample from EtOH", "value": "No changes"}, {"measurement": "XRPD after drying at 50° C./vacuum", "setting": "[4]; screening sample from EtOH/5% water", "value": "No changes"}, {"measurement": "XRPD after drying at 50° C./vacuum", "setting": "[4]; screening sample from IPA", "value": "No changes"}, {"measurement": "XRPD after drying at 50° C./vacuum", "setting": "[4]; screening sample from MIBK", "value": "No changes"}, {"measurement": "XRPD after drying at 50° C./vacuum", "setting": "[4]; screening sample from MeCN/5% water", "value": "No changes"}, {"measurement": "XRPD after drying at 50° C./vacuum", "setting": "[4]; screening sample from MeOH", "value": "No changes"}, {"measurement": "XRPD after drying at 50° C./vacuum", "setting": "[4]; screening sample from TBME", "value": "No changes"}, {"measurement": "XRPD after drying at 50° C./vacuum", "setting": "[4]; screening sample from THF", "value": "No changes"}, {"measurement": "XRPD after drying at 50° C./vacuum", "setting": "[4]; screening sample from THF/5% water", "value": "No changes"}, {"measurement": "XRPD after Storage at 40° C./75% RH", "setting": "[3]; screening sample from 2-MeTHF, after drying", "value": "No changes"}, {"measurement": "XRPD after Storage at 40° C./75% RH", "setting": "[3]; screening sample from Acetone, after drying", "value": "No changes"}, {"measurement": "XRPD after Storage at 40° C./75% RH", "setting": "[3]; screening sample from Acetonitrile, after drying", "value": "No changes; NMR"}, {"measurement": "XRPD after Storage at 40° C./75% RH", "setting": "[3]; screening sample from DCM, after drying", "value": "No changes"}, {"measurement": "XRPD after Storage at 40° C./75% RH", "setting": "[3]; screening sample from DCM:MeOH 1:1, after drying", "value": "No changes"}, {"measurement": "XRPD after Storage at 40° C./75% RH", "setting": "[3]; screening sample from DME, after drying", "value": "No changes"}, {"measurement": "XRPD after Storage at 40° C./75% RH", "setting": "[3]; screening sample from EtOAc, after drying", "value": "No changes"}, {"measurement": "XRPD after Storage at 40° C./75% RH", "setting": "[3]; screening sample from EtOH, after drying", "value": "No changes"}, {"measurement": "XRPD after Storage at 40° C./75% RH", "setting": "[3]; screening sample from EtOH/5% water, after drying", "value": "No changes"}, {"measurement": "XRPD after Storage at 40° C./75% RH", "setting": "[3]; screening sample from IPA, after drying", "value": "No changes"}, {"measurement": "XRPD after Storage at 40° C./75% RH", "setting": "[3]; screening sample from MIBK, after drying", "value": "No changes"}, {"measurement": "XRPD after Storage at 40° C./75% RH", "setting": "[3]; screening sample from MeCN/5% water, after drying", "value": "No changes"}, {"measurement": "XRPD after Storage at 40° C./75% RH", "setting": "[3]; screening sample from MeOH, after drying", "value": "No changes"}, {"measurement": "XRPD after Storage at 40° C./75% RH", "setting": "[3]; screening sample from TBME, after drying", "value": "No changes"}, {"measurement": "XRPD after Storage at 40° C./75% RH", "setting": "[3]; screening sample from THF, after drying", "value": "No changes; NMR"}, {"measurement": "XRPD after Storage at 40° C./75% RH", "setting": "[3]; screening sample from THF/5% water, after drying", "value": "No changes"}]}, {"smiles": "COc1cc(-c2cccc3cc([C@H](C)Nc4nc(N)ncc4C#N)n(-c4ccccc4)c(=O)c23)ccn1", "values": [{"measurement": "Storage 25° C./93% RH for 1 week: HPLC Purity", "setting": "[2]; salts scaled-up at 0.5 gram", "value": "HPLC Purity: Unchanged"}, {"measurement": "Storage 25° C./93% RH for 1 week: XRPD (D8)", "setting": "[2]; salts scaled-up at 0.5 gram", "value": "XRPD (D8): Unchanged"}, {"measurement": "XRPD (C2) post Aqueous solubility", "setting": "[5]; residual solid", "value": "Low cryst. 1,2-ethanedisulfonic"}, {"measurement": "Thermodynamic aqueous solubility", "setting": "[5]; salts scaled-up at 0.5 gram, listed as 1-2-Ethanedisulfonic acid", "value": 6200, "unit": "µg/mL"}, {"measurement": "Storage 40° C./75% RH for 1 week: HPLC Purity", "setting": "[3]; salts scaled-up at 0.5 gram", "value": "HPLC Purity: Unchanged"}, {"measurement": "Storage 40° C./75% RH for 1 week: XRPD (D8)", "setting": "[3]; salts scaled-up at 0.5 gram", "value": "XRPD (D8): Unchanged"}, {"measurement": "XRPD post GVS (C2)", "setting": "[6]", "value": "Unchanged"}, {"measurement": "GVS Single cycle", "setting": "[6]; hygroscopicity in words, 25° C., listed as 1-2-Ethanedisulfonic acid", "value": "Moderately hygroscopic"}]}]}
